The text below walks through data of patent US9695167B2, “Substituted triazolo[1,5-a]pyridines and triazolo[1,5-a]pyrazines as LSD1 inhibitors” (Incyte Corporation, priority 2014, dated 2017).

The target of the assay is LSD-1 enzyme (LSD1/KDM1A) (Homo sapiens (Human), UniProt O60341). Nature of the assay: biochemical.

pIC50: −log10 of the molar value.

Experimental: LANCE LSD1/KDM1A demethylase assay—10 μL of 1 nM LSD-1 enzyme (ENZO BML-SE544-0050) in the assay buffer (50 mM Tris, pH 7.5, 0.01% Tween-20, 25 mM NaCl, 5 mM DTT) were preincubated for 1 hour at 25° C. with 0.8 μL compound/DMSO dotted in black 384 well polystyrene plates. […] After stopping the reactions plates were incubated for 30 minutes and read on a PHERAstar FS plate reader (BMG Labtech).

Take `Cc1ccc(-c2c(-c3ccc(C#N)cc3)cc(OC[C@@H]3CCNC3)c3ncnn23)cc1` [Example 1, 4-{5-(4-methylphenyl)-8-[(3R)-pyrrolidin-3-ylmethoxy][1,2,4]triazolo[1,5-a]pyridin-6-yl}benzonitrile]: the pIC50 (commonly the IC50 on a negative log10 scale, so that one unit is a factor of ten) was greater than 7.30.
The value for `Cc1ccc(-c2c(-c3ccc(C#N)cc3)cc(CCC3CCNC3)c3ncnn23)cc1` (centres unmarked) [Example 2, 4-[5-(4-methylphenyl)-8-(2-pyrrolidin-3-ylethyl)[1,2,4]triazolo[1,5-a]pyridin-6-yl]benzonitrile] was greater than 7.30; that for `CN[C@H]1CCN(Cc2cc(-c3ccc(C#N)cc3)c(-c3ccc(C)cc3)n3ncnc23)C1` [Example 10, 4-[8-{[(3S)-3-(methylamino)pyrrolidin-1-yl]methyl}-5-(4-methylphenyl)[1,2,4]triazolo[1,5-a]pyridin-6-yl]benzonitrile] was greater than 7.30.
In turn, `CN[C@@H]1CCN(Cc2cc(-c3ccc(C#N)cc3)c(-c3ccc(C)cc3)n3ncnc23)C1` [Example 11, 4-[8-{[(3R)-3-(methylamino)pyrrolidin-1-yl]methyl}-5-(4-methylphenyl)[1,2,4]triazolo[1,5-a]pyridin-6-yl]benzonitrile] gave a pIC50 greater than 7.30.
As for `Cc1ccc(-c2c(-c3ccc(C#N)cc3)nc(OC[C@@H]3CCNC3)c3ncnn23)cc1` [Example 12, 4-{5-(4-methylphenyl)-8-[(3R)-pyrrolidin-3-ylmethoxy][1,2,4]triazolo[1,5-a]pyrazin-6-yl}benzonitrile], the pIC50 is greater than 7.30.
